The data set is described as follows: in vitro. The settings on record: human, hela cells, % viability.

Broadly, the viability is a read-out of living cells in per cent, often relative to untreated cells.

With `O=C(c1ccco1)N1CCN(S(=O)(=O)c2ccc(Cl)cc2)CC1` [CBK068411], the viability at 28.5 h, 10 µM turned out to be 104%.
Same read-out and setting: as for `Cc1ccc2cc(CN(Cc3cccs3)C(=O)NCc3ccccc3)c(=O)[nH]c2c1C` [CBK068496], the figure is 91.2%.
On to `O=C(CSc1nnc(-c2ccccc2Br)o1)c1ccc(F)cc1` [CBK068688], for which the viability at 28.5 h, 10 µM turned out to be 92.2%.
For `COC(=O)c1ccc(S(=O)(=O)N2CCc3ccccc3C2)cc1` [CBK068696], the viability at 28.5 h, 10 µM worked out at 109%.
Still for that read-out and setting: the figure for `Cc1ccc2[nH]c(=O)c(CN(Cc3ccccc3)C(=O)NC3CCCCC3)cc2c1` [CBK068704] is 84.5%; for `O=C(CSc1nnc(-c2cccc(F)c2)o1)c1ccccc1` [CBK068764] it is 105%; for `COCCn1nnnc1C(c1cc2cc(C)cc(C)c2[nH]c1=O)N1CCOCC1` (centres unmarked) [CBK068815] it is 95.3%.
On to `CCCOc1ccc(-c2nnn(CC(=O)OCC)n2)cc1` [CBK068817], for which the viability at 28.5 h, 10 µM worked out at 98.8%.
On to `CCOC(=O)CSc1nnc(-c2ccc(Cl)cc2)o1` [CBK068845], for which the viability at 28.5 h, 10 µM stood at 105%.
As for `COC(=O)Cn1nnc(-c2ccccc2)n1` [CBK069215], the viability at 28.5 h, 10 µM worked out at 84.8%.
As for `COCCNC(=O)Cn1nnc(-c2ccc(OC)cc2)n1` [CBK069349], the viability at 28.5 h, 10 µM came to 88.1%.
As for `CS(=O)(=O)Nc1nnc(C2CCCCC2)s1` [CBK069540], the viability at 28.5 h, 10 µM stood at 95.6%.
Still for that read-out and setting: the figure for `CCOC(=O)Cn1nnc(-c2ccc(Cl)cc2)n1` [CBK069596] is 95.8%; for `COc1ccc(NC(=O)C2CCCN2S(=O)(=O)c2ccc(OC)cc2)cc1` (centres unmarked) [CBK070001] it is 78.1%; for `COc1cccc(-c2csc(N3CCN(C(=O)Nc4ccccc4)CC3)n2)c1` [CBK070275] it is 95.4%.
The same measure, in the same setting: as for `CC(C)C1OC(NCc2ccccc2Cl)=NC1=O` (centres unmarked) [CBK070344], the figure is 95.1%.
With `COc1ccc(S(=O)(=O)N2CCN(c3ccccc3F)CC2)cc1` [CBK070377], the viability at 28.5 h, 10 µM was determined as 87.1%.
On the same count and under the same terms, as for `CC(C)C1OC(N2CCOCC2)=NC1=O` (centres unmarked) [CBK070384], the figure is 92.3%.
Regarding `CCC(=O)Nc1nc(-c2ccc(OC)cc2)cs1` [CBK070494], the viability at 28.5 h, 10 µM came out at 85.7%.
In the case of `CCCCOc1ccc(-c2nnn(C(C)C(=O)O)n2)cc1` (centres unmarked) [CBK070540], the viability at 28.5 h, 10 µM worked out at 103%.
Turning to `CCCCOc1ccc(-c2nnn(CC(=O)Nc3ccccc3)n2)cc1` [CBK070609], the viability at 28.5 h, 10 µM came out at 90.2%.
Regarding `CCNC(=O)Nc1ncc(-c2ccc3c(c2)OCCCO3)c2cccnc12` [CBK070634], the viability at 28.5 h, 10 µM is 104%.
`CCNC(=O)Nc1ccc2c(-c3ccccc3)ccnc2n1` [CBK070668]: the viability at 28.5 h, 10 µM was 95.6%.
In the case of `CCNC(=O)Nc1ncc(-c2ccsc2)c2cccnc12` [CBK070686], the viability at 28.5 h, 10 µM was 103%.
For `CCNC(=O)Nc1cc2cccnc2nc1-c1ccc(S(C)(=O)=O)cc1` [CBK070706], the viability at 28.5 h, 10 µM was found to be 93.3%.
With `O=C(Nc1ccccc1)Nc1nc(=O)n(-c2ccccc2)s1` [CBK070710], the viability at 28.5 h, 10 µM stood at 93%.
Still for that read-out and setting: the figure for `O=C1N=C(NC2CCCCCC2)S[C@@H]1CC1CCCCC1` [CBK070723] is 95.8%.
Consider `c1ccc2c(c1)OCC(COc1nccnc1OC1CCNCC1)O2` (centres unmarked) [CBK070766T], for which the viability at 28.5 h, 10 µM was determined as 102%.
`COc1ccccc1C(=O)Nc1ccc2nc(SCC(=O)NC3CC3)sc2c1` [CBK070791]: the viability at 28.5 h, 10 µM amounted to 92.7%.
Consider `Cc1[nH]c2c(Cl)cc(Cl)cc2c1CCN` [CBK070893], for which the viability at 28.5 h, 10 µM (bulk resorufin, single well) came out at 103%.
As for `CCCCNC(=O)CSc1ncccc1C(=O)NCc1cccnc1` [CBK071590], the viability at 28.5 h, 10 µM came to 91%.
As to `COCCCNC(=O)c1cnn2c(C)c(Cc3ccccc3Br)c(C)nc12` [CBK071628], the viability at 28.5 h, 10 µM worked out at 101%.
Take `CCNC(Cc1ccc2ccccc2c1)C(=O)OC` (centres unmarked) [CBK071702]: the viability at 28.5 h, 10 µM stood at 109%.
Regarding `CC(=O)Nc1cc(C(=O)NCCc2ccccc2)ccc1S(=O)(=O)c1ccc(C)cc1` [CBK071771], the viability at 28.5 h, 10 µM worked out at 89.3%.
Consider `Cc1ccc(CNC(=O)c2ccc3c(c2)NC(=O)C(N2CCCC2)S3)cc1` (centres unmarked) [CBK071788], for which the viability at 28.5 h, 10 µM was 84.6%.
With `CCCCN(C)CCNC(=O)c1ccc2c(c1)NC(=O)C(N1CCCCC1)S2` (centres unmarked) [CBK071799], the viability at 28.5 h, 10 µM turned out to be 85.1%.
Turning to `COc1ccccc1NC(=O)Cn1cnc2sc(C(=O)NC(C)C)c(C)c2c1=O` [CBK071847], the viability at 28.5 h, 10 µM was found to be 93%.
Consider `CCOCCn1cnc2sc(C(=O)NCc3ccccn3)c(C)c2c1=O` [CBK071857], for which the viability at 28.5 h, 10 µM is 93.4%.
Turning to `Cc1cc2c(=O)n(CC(=O)NCc3ccccn3)cnc2s1` [CBK071900], the viability at 28.5 h, 10 µM is 91.1%.
With `CCCNC(=O)Cn1cnc2sc(C(=O)Nc3ccccc3OC)c(C)c2c1=O` [CBK071910], the viability at 28.5 h, 10 µM amounted to 90.3%.
In the case of `CCCNC(=O)Cn1cnc2sc(C(=O)Nc3ccc(OCC)cc3)c(C)c2c1=O` [CBK071920], the viability at 28.5 h, 10 µM is 91.2%.
Take `O=C(CN1CCN(S(=O)(=O)c2ccc(F)cc2)CC1)Nc1cccc(C(F)(F)F)c1` [CBK071925]: the viability at 28.5 h, 10 µM amounted to 92.7%.
Regarding `O=C(Nc1nc2ccccc2s1)c1cccnc1Cl` [CBK071983], the viability at 28.5 h, 10 µM stood at 108%.
Turning to `Cc1cc(C)c2c(N)c(C(=O)Nc3ccc(Br)cc3)sc2n1` [CBK072019], the viability at 28.5 h, 10 µM is 108%.
Take `COc1cccc(NC(=O)c2sc(N)nc2-c2ccccc2)c1` [CBK072023]: the viability at 28.5 h, 10 µM is 95.2%.
On to `Cc1ccc(-c2csc(NC(=O)c3ccccc3C(=O)O)n2)cc1` [CBK072083], for which the viability at 28.5 h, 10 µM is 91.9%.
Consider `CCOC(=O)C1=C(C)NC(=O)NC1c1ccc(-c2cccc([N+](=O)[O-])c2)o1` (centres unmarked) [CBK072102], for which the viability at 28.5 h, 10 µM was found to be 109%.
Consider `CC(C)NC(=O)CSc1nc2ccccc2[nH]1` [CBK072235], for which the viability at 28.5 h, 10 µM came to 92.9%.
With `COc1cc(NC(=O)CCc2ccccc2)nc(OC)n1` [CBK072282], the viability at 28.5 h, 10 µM was determined as 79.5%.
For `O=C1NC(c2cccnc2)Nc2sc3c(c21)CCCC3` (centres unmarked) [CBK072377], the viability at 28.5 h, 10 µM came to 103%.
In the case of `CCN(CC)CCSc1nc(O)c(Cc2ccccc2)c(=O)[nH]1` [CBK072486], the viability at 28.5 h, 10 µM was 88.9%.
Same read-out and setting: as for `O=C(COc1ccccc1)N1CCN(Cc2ccncc2)CC1` [CBK072595], the figure is 94.6%; as for `Clc1ccc(Nc2ncnc3ccccc23)cc1` [CBK072625], 86.1%; as for `COc1ccc(C(=O)Nc2cccc(-c3nc4ccccc4[nH]3)c2)c(OC)c1` [CBK072662], 95.4%.
As to `Cc1ccc(-c2csc(NC(=O)c3cccnc3)n2)cc1` [CBK072677], the viability at 28.5 h, 10 µM worked out at 96.9%.
`Cc1nc2ccccc2c(=O)n1CC(=O)NCc1ccccc1` [CBK072830]: the viability at 28.5 h, 10 µM came out at 91.9%.
As for `O=C(O)c1cccc(Nc2ncnc3ccccc23)c1` [CBK073042], the viability at 28.5 h, 10 µM came out at 87.8%.
Take `OCCNc1ncnc2ccc(Br)cc12` [CBK073217]: the viability at 28.5 h, 10 µM came out at 93.9%.
`O=C(COc1ccc(Br)cc1)N1CCN(Cc2ccncc2)CC1` [CBK073259]: the viability at 28.5 h, 10 µM was determined as 98.1%.
On to `O=C(COc1ccccc1)N1CCN(Cc2ccccn2)CC1` [CBK073265G], for which the viability at 28.5 h, 10 µM was found to be 86.1%.
Take `Cc1ccccc1OCc1nc(C#N)c(NCc2ccc3c(c2)OCO3)o1` [CBK073372]: the viability at 28.5 h, 10 µM worked out at 109%.
Still for that read-out and setting: the figure for `Cc1cc(NC(=O)CNC(=O)c2ccccc2)no1` [CBK073427] is 99.7%; for `CC(C)C(=O)Nc1cccc(C(=O)Nc2nnc(C(F)(F)F)s2)c1` [CBK073453] it is 107%.
For the compound `COC(=O)C1=C(C)N=C2SCCC(=O)N2C1c1ccc(C(C)C)cc1` (centres unmarked) [CBK073523], the viability at 28.5 h, 10 µM was found to be 109%.
Regarding `COc1ccc(C)cc1S(=O)(=O)Nc1cc(N2CCN(CC3CC3)CC2)c2occc2c1` [CBK073624C], the viability at 28.5 h, 10 µM came out at 94.2%.
Turning to `CC(C)C(=O)Nc1cc2cccnc2nc1-c1ccccc1` [CBK073647], the viability at 28.5 h, 10 µM came to 94.7%.
`CC(C)C(=O)Nc1cc2cccnc2nc1-c1ccsc1` [CBK073649]: the viability at 28.5 h, 10 µM stood at 87.8%.
With `CC(C)C(=O)Nc1cc2cccnc2nc1-c1ccc2c(c1)OCCCO2` [CBK073658], the viability at 28.5 h, 10 µM was found to be 96.3%.
For `COc1cc(-c2nc3ncccc3cc2NC(=O)C(C)C)cc(OC)c1OC` [CBK073661], the viability at 28.5 h, 10 µM is 96.6%.
For `COc1ccc(-c2ccc3ccc(NC(=O)C(C)C)nc3n2)cc1C` [CBK073665], the viability at 28.5 h, 10 µM turned out to be 92.3%.
In the case of `COc1ccc([C@@]23CC[C@@H](NC(=O)Nc4ccc(C)c(F)c4F)C[C@@H]2N(C)CC3)cc1OC` [CBK073686T], the viability at 28.5 h, 10 µM amounted to 87.3%.
With `Oc1cc2cccnc2nc1-c1ccccc1` [CBK073697], the viability at 28.5 h, 10 µM came out at 115%.
In the case of `CC(C)(C)c1ccc(-c2nc3ncccc3cc2O)cc1` [CBK073703], the viability at 28.5 h, 10 µM is 74.5%.
On to `Oc1cc2cccnc2nc1-c1cccc(C(F)(F)F)c1` [CBK073704], for which the viability at 28.5 h, 10 µM amounted to 79%.
On to `COc1ccc(-c2ccc3ccc(=O)[nH]c3n2)cc1C` [CBK073712], for which the viability at 28.5 h, 10 µM was 108%.
For the compound `O=c1ccc2ccc(-c3cccc(C(F)(F)F)c3)nc2[nH]1` [CBK073717], the viability at 28.5 h, 10 µM is 83.7%.
Regarding `O=c1ccc2ccc(-c3ccc(OC(F)(F)F)cc3)nc2[nH]1` [CBK073720], the viability at 28.5 h, 10 µM came out at 98.8%.
Same read-out and setting: as for `O=c1ccc2c(-c3ccccc3)ccnc2[nH]1` [CBK073723], the figure is 94.2%; as for `O=c1ccc2c(-c3ccsc3)ccnc2[nH]1` [CBK073724], 91.5%.
With `COc1cc(F)ccc1-c1ccnc2[nH]c(=O)ccc12` [CBK073727], the viability at 28.5 h, 10 µM was found to be 74.2%.
Same read-out and setting: the figure for `O=c1ccc2c(-c3cccc(OCc4ccccc4)c3)ccnc2[nH]1` [CBK073739] is 87.6%.
Same read-out and setting: as for `COc1ccc([C@@]23CC[C@@H](NC(=O)Nc4c(F)cc(F)cc4Cl)C[C@@H]2N(C)CC3)cc1OC` [CBK073740T], the figure is 112%; as for `COc1ccc([C@@]23CC[C@@H](NC(=O)Nc4c(F)ccc(F)c4Cl)C[C@@H]2N(C)CC3)cc1OC` [CBK073769T], 93%.

The values are drawn from article PMC12040169 (PLOS Biology, 2025).
